According to patent US20100292137A1, “Antibiotics and Methods For Producing Them” (priority 2006, published 2010):
Where two headings read alike, the source gives them in different places.

Tests used:
[1] = system: M. tuberculosis rrl mutant C-401; type: cell-based, Mycobacterium tuberculosis
M. tuberculosis [2] = type: cell-based, Mycobacterium tuberculosis
M. tuberculosis [3] = conditions: tlyA mutants 315-A, C-202 and C-211; cited from earlier work

| Compound | effect on growth rate [1] | susceptibility (M. tuberculosis [2]) | susceptibility (M. tuberculosis [3]) |
| --- | --- | --- | --- |
| capreomycin | do not noticeably slow the growth rate | – | – |
| NCC[C@H](O)C(=O)N[C@@H]1C[C@H](N)[C@@H](O[C@H]2O[C@H](CN)[C@@H](O)[C@H](O)[C@H]2O)[C@H](O)[C@H]1O[C@H]1O[C@H](CO)[C@@H](O)[C@H](N)[C@H]1O [amikacin] | – | susceptible | susceptible |
